Test results reported in patent publication US20230089867A1, “CYCLIC PENTAMER COMPOUNDS AS PROPROTEIN CONVERTASE SUBTILISIN/KEXIN TYPE 9 (PCSK9) INHIBITORS FOR THE TREATMENT OF METABOLIC DISORDER” (Novartis AG, priority 2018, published 2023).

Target: human PCSK9 (Homo sapiens, UniProt Q8NBP7)
Test: PCSK9 ligand binding TR-FRET assay (interference with binding of human PCSK9 to human LDLR)
Settings: for Max % inhibition: PCSK9 FRET assay, efficacy (Amax), 100% = 1 uM unlabeled human PCSK9, 0% = DMSO; for IC50: TR-FRET, human PCSK9 Alexa Fluor 647 / human LDLR extracellular domain-Europium Kryptate, read-out: PCSK9 FRET Assay IC50
In short: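 Threefold compound dilutions were pre-incubated 30 min with PCSK9, after which 4 nM Europium Kryptate-tagged human LDLR ectodomain was added for a further 2 h.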

human PCSK9, sequence (Q8NBP7 153-692): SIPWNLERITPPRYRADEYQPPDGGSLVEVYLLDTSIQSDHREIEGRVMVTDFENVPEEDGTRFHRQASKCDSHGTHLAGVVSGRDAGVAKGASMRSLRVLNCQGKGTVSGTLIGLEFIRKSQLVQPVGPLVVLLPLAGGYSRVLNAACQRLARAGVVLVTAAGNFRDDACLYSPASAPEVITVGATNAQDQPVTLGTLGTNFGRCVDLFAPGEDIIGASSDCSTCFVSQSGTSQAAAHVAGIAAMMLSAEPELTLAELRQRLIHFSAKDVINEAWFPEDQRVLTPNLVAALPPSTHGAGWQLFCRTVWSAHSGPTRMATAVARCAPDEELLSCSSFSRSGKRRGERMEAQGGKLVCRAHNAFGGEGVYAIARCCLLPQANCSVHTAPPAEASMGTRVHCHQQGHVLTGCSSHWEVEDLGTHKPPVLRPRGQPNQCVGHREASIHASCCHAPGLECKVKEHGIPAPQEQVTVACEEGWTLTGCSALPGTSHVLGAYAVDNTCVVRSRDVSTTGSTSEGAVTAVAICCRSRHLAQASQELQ
human PCSK9, sequence (Q8NBP7 31-152 partner limits assumed): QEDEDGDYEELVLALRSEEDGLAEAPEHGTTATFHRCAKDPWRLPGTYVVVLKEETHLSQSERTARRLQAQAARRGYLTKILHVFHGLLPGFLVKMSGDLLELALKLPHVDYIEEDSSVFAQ

SMILES | Max % inhibition [%] | IC50 [nM]
COC[C@@H]1NC(=O)[C@H](C)N(Cc2ccc(Cl)cc2Oc2ccc(-c3cnc(CN(C)C)n3C)cc2)C(=O)C[C@@H](Cc2ccccc2)C(=O)N(C)C(C)C(C)NC(=O)C[C@H](Cc2ccc(Cl)cc2)N(C)C1=O (stereo partly drawn) [Compound 50, (2S,5S,8S,16R)-16-benzyl-1-(4-chloro-2-(4-(2-((dimethylamino)methyl)-1-methyl-1H-imidazol-5-yl)phenoxy)benzyl)-8-(4-chlorobenzyl)-5-(methoxymethyl)-2,7,12,13,14-pentamethyl-1,4,7,11,14-pentaazacyclooctadecane-3,6,10,15,18-pentaone] | 101.21 | 41
COC[C@@H]1NC(=O)[C@H](CC(=O)N2CC3(COC3)C2)N(Cc2ccc(Cl)cc2Oc2ccc(-c3cnc(CN(C)C)n3C)cc2)C(=O)C[C@@H](Cc2ccccc2)C(=O)N(C)C2CCCCC2NC(=O)C[C@H](Cc2ccc(Cl)cc2)N(C)C1=O (stereo in doubt) [Compound 106, (4S,7S,10S,14R,16aS,20aS)-14-benzyl-11-(4-chloro-2-(4-(2-((dimethylamino)methyl)-1-methyl-1H-imidazol-5-yl)phenoxy)benzyl)-4-(4-chlorobenzyl)-7-(methoxymethyl)-5,16-dimethyl-10-(2-oxo-2-(2-oxa-6-azaspiro[3.3]heptan-6-yl)ethyl)hexadecahydrobenzo[l][1,4,7,11,14]pentaazacyclooctadecine-2,6,9,12,15(3H)-pentaone] | 106.45 | 2
CCC(CC)[C@@H]1CC(=O)N(Cc2ccc(Cl)cc2Oc2ccc(-c3cnc(CN(C)C)n3C)cc2)[C@@H](C)C(=O)N[C@@H](COC)C(=O)N(C)[C@@H](Cc2ccc(Cl)cc2)CC(=O)NC[C@H](C)N(C)C1=O [Compound 40, (2S,5S,8S,13S,16S)-1-(4-chloro-2-(4-(2-((dimethylamino)methyl)-1-methyl-1H-imidazol-5-yl)phenoxy)benzyl)-8-(4-chlorobenzyl)-5-(methoxymethyl)-2,7,13,14-tetramethyl-16-(pentan-3-yl)-1,4,7,11,14-pentaazacyclooctadecane-3,6,10,15,18-pentaone] | 104.99 | 99.6
C=CC[C@@H]1CC(=O)N(Cc2ccc(Cl)cc2Oc2ccc(-c3cnc(CN(C)C)n3C)cc2)[C@@H](C)C(=O)N[C@@H](COC)C(=O)N(C)[C@@H](Cc2ccc(Cl)cc2)CC(=O)N[C@H]2CCCC[C@@H]2N(C)C1=O [Compound 110, (4S,7S,10S,14R,16aS,20aS)-14-allyl-11-(4-chloro-2-(4-(2-((dimethylamino)methyl)-1-methyl-1H-imidazol-5-yl)phenoxy)benzyl)-4-(4-chlorobenzyl)-7-(methoxymethyl)-5,10,16-trimethylhexadecahydrobenzo[l][1,4,7,11,14]pentaazacyclooctadecine-2,6,9,12,15(3H)-pentaone] | 99.22 | 1.2
COC[C@@H]1NC(=O)[C@H](C)N(Cc2ccc(Cl)cc2Oc2ccc(-c3cnc(CN(C)C)n3C)cc2)C(=O)CC2(CC2)C(=O)N(C)[C@@H](C)CNC(=O)C[C@H](Cc2ccc(Cl)cc2)N(C)C1=O [Compound 201, (6S,11S,14S,17S)-18-(4-chloro-2-(4-(2-((dimethylamino)methyl)-1-methyl-1H-imidazol-5-yl)phenoxy)benzyl)-11-(4-chlorobenzyl)-14-(methoxymethyl)-5,6,12,17-tetramethyl-5,8,12,15,18-pentaazaspiro[2.17]icosane-4,9,13,16,19-pentaone] | 72.22 | 441
COC[C@@H]1NC(=O)[C@H](C)N(Cc2ccc(Cl)cc2Oc2ccc(-c3cnc(CN(C)C)n3C)cc2)C(=O)C[C@@H](CC(F)=C(F)F)C(=O)N(C)[C@H]2CCCC[C@@H]2NC(=O)C[C@H](Cc2ccc(Cl)cc2)N(C)C1=O [Compound 96, (4S,7S,10S,14S,16aS,20aS)-11-(4-chloro-2-(4-(2-((dimethylamino)methyl)-1-methyl-1H-imidazol-5-yl)phenoxy)benzyl)-4-(4-chlorobenzyl)-7-(methoxymethyl)-5,10,16-trimethyl-14-(2,3,3-trifluoroallyl)hexadecahydrobenzo[l][1,4,7,11,14]pentaazacyclooctadecine-2,6,9,12,15(3H)-pentaone] | 78.14 | 304
COC[C@@H]1NC(=O)[C@H](C)N(Cc2ccc(Cl)cc2Oc2ccc(-c3cnc(CN(C)C)n3C)cc2)C(=O)C[C@H]2C(=O)N(C)[C@@H](CNC(=O)C[C@H](Cc3ccc(Cl)cc3)N(C)C1=O)C(=O)N2C [Compound 262, (1S,6S,9S,12S,16S)-13-(4-chloro-2-(4-(2-((dimethylamino)methyl)-1-methyl-1H-imidazol-5-yl)phenoxy)benzyl)-6-(4-chlorobenzyl)-9-(methoxymethyl)-7,12,17,19-tetramethyl-3,7,10,13,17,19-hexaazabicyclo[14.2.2]icosane-4,8,11,14,18,20-hexaone] | 97.63 | 205
COC[C@@H]1NC(=O)[C@H](C)N(Cc2ccc(Cl)cc2Oc2ccc(-c3cnc(CN4CCCC4)n3C)cc2)C(=O)C[C@@H](Cc2cccc(F)c2F)C(=O)N(C)[C@@H](C)CNC(=O)C[C@H](Cc2ccc(Cl)cc2)N(C)C1=O [Compound 67, (2S,5S,8S,13S,16R)-1-(4-chloro-2-(4-(1-methyl-2-(pyrrolidin-1-ylmethyl)-1H-imidazol-5-yl)phenoxy)benzyl)-8-(4-chlorobenzyl)-16-(2,3-difluorobenzyl)-5-(methoxymethyl)-2,7,13,14-tetramethyl-1,4,7,11,14-pentaazacyclooctadecane-3,6,10,15,18-pentaone] | 96.63 | 0.6
COC[C@@H]1NC(=O)[C@H](C)N(Cc2ccc(Cl)cc2Oc2ccc(-c3cnc(CN(C)C)n3C)cc2)C(=O)C[C@@H](Cc2ccccc2)C(=O)N(C)[C@H]2CCOC[C@@H]2NC(=O)C[C@H](Cc2ccc(Cl)cc2)N(C)C1=O [Compound 187, (4S,7S,10S,14R,16aS,20aR)-14-benzyl-11-(4-chloro-2-(4-(2-((dimethylamino)methyl)-1-methyl-1H-imidazol-5-yl)phenoxy)benzyl)-4-(4-chlorobenzyl)-7-(methoxymethyl)-5,10,16-trimethyltetradecahydro-1H-pyrano[3,4-l][1,4,7,11,14]pentaazacyclooctadecine-2,6,9,12,15(3H)-pentaone] | 94.30 | 1.3
COC[C@@H]1NC(=O)[C@H](C)N(Cc2ccc(Cl)cc2Oc2ccc(-c3c(C)nc(CN4CCCC4)n3C)cc2)C(=O)C[C@@H](Cc2ccccc2)C(=O)N(C)[C@@H](C)CNC(=O)C[C@H](Cc2ccc(Cl)cc2)N(C)C1=O [Compound 55, (2S,5S,8S,13S,16R)-16-benzyl-1-(4-chloro-2-(4-(1,4-dimethyl-2-(pyrrolidin-1-ylmethyl)-1H-imidazol-5-yl)phenoxy)benzyl)-8-(4-chlorobenzyl)-5-(methoxymethyl)-2,7,13,14-tetramethyl-1,4,7,11,14-pentaazacyclooctadecane-3,6,10,15,18-pentaone] | 58.77 | 9.3
